For 27 compounds, GI50 results are on record in US9624229B2, “Pyrimidine-2-amine compounds and their use as inhibitors of JAK kinases” (Rigel Pharmaceuticals, Inc., priority 2008, dated 2017).

The structures appear in SMILES notation. Where only a bound is given, the exact number is not on record here.

Sequence of Ba/F3 V617F cells (O60674 whole entry V617F): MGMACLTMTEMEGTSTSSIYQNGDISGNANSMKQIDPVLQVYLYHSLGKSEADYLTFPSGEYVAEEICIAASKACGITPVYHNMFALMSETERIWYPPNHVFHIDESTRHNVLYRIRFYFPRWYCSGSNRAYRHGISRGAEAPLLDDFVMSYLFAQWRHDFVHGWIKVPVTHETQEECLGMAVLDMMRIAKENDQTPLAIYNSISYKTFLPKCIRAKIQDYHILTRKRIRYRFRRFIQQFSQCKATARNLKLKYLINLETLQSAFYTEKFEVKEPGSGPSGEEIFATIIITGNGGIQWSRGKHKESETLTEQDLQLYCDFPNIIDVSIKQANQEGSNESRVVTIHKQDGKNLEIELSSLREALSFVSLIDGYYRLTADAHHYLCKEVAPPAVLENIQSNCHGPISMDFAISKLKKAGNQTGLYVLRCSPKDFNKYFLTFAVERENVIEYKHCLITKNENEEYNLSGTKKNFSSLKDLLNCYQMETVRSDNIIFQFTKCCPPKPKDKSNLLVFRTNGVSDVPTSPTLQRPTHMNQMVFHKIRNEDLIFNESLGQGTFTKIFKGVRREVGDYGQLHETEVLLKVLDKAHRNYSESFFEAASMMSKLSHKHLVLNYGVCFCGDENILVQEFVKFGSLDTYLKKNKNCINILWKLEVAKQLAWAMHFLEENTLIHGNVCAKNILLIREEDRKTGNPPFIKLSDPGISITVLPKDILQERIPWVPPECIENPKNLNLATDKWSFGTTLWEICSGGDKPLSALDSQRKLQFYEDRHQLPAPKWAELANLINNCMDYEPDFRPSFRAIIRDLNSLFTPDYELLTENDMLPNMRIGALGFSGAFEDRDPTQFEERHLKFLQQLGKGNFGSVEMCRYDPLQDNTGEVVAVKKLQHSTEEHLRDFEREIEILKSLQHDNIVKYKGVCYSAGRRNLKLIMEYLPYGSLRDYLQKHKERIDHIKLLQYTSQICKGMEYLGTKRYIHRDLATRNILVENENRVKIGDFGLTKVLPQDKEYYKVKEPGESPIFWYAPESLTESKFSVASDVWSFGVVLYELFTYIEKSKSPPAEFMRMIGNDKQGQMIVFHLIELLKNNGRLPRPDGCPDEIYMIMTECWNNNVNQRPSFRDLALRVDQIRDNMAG

One assay has as its target Ba/F3 V617F cells (Homo sapiens, UniProt O60674, V617F, cells depend on it). Description: Proliferation assay (Cell Titer-Glo, 72 h) utilizing Ba/F3 V617F cells. The assay is classed as cell-based, mouse. Particulars: Ba/F3 V617F cells, proliferation, level of activity given as class symbol, read-out: IC50 (the source's name). Put shortly:
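Ba/F3 V617F cells in RPMI/10% FBS, 1×10^5 cells/mL, exposed in duplicate to 3-fold serial compound dilutions (top 5 mM DMSO stock, diluted 1:250, added as 2× solution in 5% FBS medium) for 72 h at 37 °C. Viability by Cell Titer-Glo luminescence; IC50 reported.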
On to `Cc1cc(Nc2nccc(-c3cnc4c(c3)CCC(=O)N4)n2)ccc1N1C[C@@H]2C[C@H]1CN2S(C)(=O)=O` [compound 237, 4-(7-oxo-5,6,7,8-tetrahydro-1,8-naphthyridin-3-yl)-N-(3-methyl-4-((1S,4S)-5-methylsulfonyl-2,5-diazabicyclo[2.2.1]heptan-2-yl)phenyl)pyrimidin-2-amine], for which the GI50 is less than 1000 nM. Same read-out and setting: as for `Cc1cc(Nc2nccc(-c3cnc4c(c3)OCC(=O)N4)n2)ccc1N1C[C@@H]2C[C@H]1CN2C` [compound 209, 4-(3-oxo-3,4-dihydro-2H-pyrido[3,2-b][1,4]oxazin-7-yl)-N-(3-methyl-4-((1S,4S)-5-methyl-2,5-diazabicyclo[2.2.1]heptan-2-yl)phenyl)pyrimidin-2-amine], the figure is less than 1000 nM. Same read-out and setting: as for `COCCN(C)c1ccc(-c2ccnc(Nc3ccc(N4C[C@@H]5C[C@H]4CO5)c(C)c3)n2)cn1` [compound 220, 4-(6-(2-methoxyethyl)(methyl)aminopyridin-3-yl)-N-(3-methyl-4-((1S,4S)-5-oxa-2-azabicyclo[2.2.1]heptan-2-yl)phenyl)pyrimidin-2-amine], the figure is less than 1000 nM; as for `Cc1cc(Nc2nccc(-c3ccc(N4CCCCC4)nc3)n2)ccc1N1C[C@@H]2C[C@H]1CN2C` [compound 190, 4-(6-(piperidin-1-yl)pyridin-3-yl)-N-(3-methyl-4-((1S,4S)-5-methyl-2,5-diazabicyclo[2.2.1]heptan-2-yl)phenyl)pyrimidin-2-amine], less than 1000 nM; as for `Cc1cc(Nc2nccc(-c3cnc4c(c3)OCCN4C)n2)ccc1N1C[C@@H]2C[C@H]1CO2` [compound 195, 4-(4-methyl-3,4-dihydro-2H-pyrido[3,2-b][1,4]oxazin-7-yl)-N-(3-methyl-4-((1S,4S)-5-oxa-2-azabicyclo[2.2.1]heptan-2-yl)phenyl)pyrimidin-2-amine], less than 1000 nM. Regarding `Cc1cc(Nc2nccc(-c3ccc(N4CCOCC4)nc3)n2)ccc1N1C[C@@H]2C[C@H]1CN2C` [compound 231, 4-(6-(morpholin-4-yl)pyridin-3-yl)-N-(3-methyl-4-((1S,4S)-5-methyl-2,5-diazabicyclo[2.2.1]heptan-2-yl)phenyl)pyrimidin-2-amine], the GI50 was less than 1000 nM.

Consider `CS(=O)(=O)N1CC2CC(c3ccc(Nc4nccc(-c5ccc(N6CCOCC6)nc5)n4)cc3)C1C2` (stereo not drawn) [compound 229, 4-(6-(morpholin-4-yl)pyridin-3-yl)-N-(4-(2-methylsulfonyl-2-azabicyclo[2.2.1]heptan-6-yl)phenyl)pyrimidin-2-amine], for which the GI50 was in the range of 1000 to 10000 nM. On the same count and under the same terms, as for `Cc1cc(Nc2nccc(-c3ccc(OC4CCOCC4)nc3)n2)ccc1N1CCN2CCC1C2` (stereo not drawn) [compound 275, 4-(6-(tetrahydropyran-4-yloxy)pyridin-3-yl)-N-(3-methyl-4-(1,4-diazabicyclo[3.2.1]octan-4-yl)phenyl)pyrimidin-2-amine], the figure is less than 1000 nM.

Staying with this assay, now noted: Ba/F3 V617F cells, proliferation, level of activity to inhibit JAK2, read-out: IC50 (the source's name).
Turning to `CCN1C[C@@H]2C[C@H]1CN2c1ccc(Nc2nccc(-c3ccc(N4CCOCC4)nc3)n2)cc1C` [compound 25, 4-(6-(morpholin-4-yl)pyridin-3-yl)-N-(3-methyl-4-((1S,4S)-5-ethyl-2,5-diazabicyclo[2.2.1]heptan-2-yl)phenyl)pyrimidin-2-amine], the GI50 is less than 1000 nM. Same read-out and setting: for `Cc1cc(Nc2nccc(-c3ccc(NCCNS(=O)(=O)C4CC4)nc3)n2)ccc1N1C[C@@H]2C[C@H]1CN2C` [compound 99, 4-(6-((2-(cyclopropylsulfonyl)aminoethyl)-amino)pyridin-3-yl)-N-(3-methyl-4-((1S,4S)-5-methyl-2,5-diazabicyclo[2.2.1]heptan-2-yl)phenyl)pyrimidin-2-amine] the value was 1000 to 10000 nM; for `Cc1cc(Nc2nccc(-c3cnc4c(c3)OC(C)(C)C(=O)N4)n2)ccc1N1C[C@@H]2C[C@H]1CN2S(N)(=O)=O` [compound 38, 4-(2,2-dimethyl-3-oxo-3,4-dihydro-2H-pyrido[3,2-b][1,4]oxazin-7-yl)-N-(3-methyl-4-((1S,4S)-5-(aminosulfonyl)-2,5-diazabicyclo[2.2.1]heptan-2-yl)phenyl)pyrimidin-2-amine], less than 1000 nM; for `Cc1cc(Nc2nccc(-c3cnc4c(c3)OC(C)(C)C(=O)N4)n2)ccc1N1CCN2CCC1CC2` [compound 160, 4-(2,2-dimethyl-3-oxo-3,4-dihydro-2H-pyrido[3,2-b][1,4]oxazin-7-yl)-N-(3-methyl-4-(1,4-diazabicyclo[3.2.2]nonan-4-yl)phenyl)pyrimidin-2-amine], less than 1000 nM.

For `Cc1cc(Nc2nccc(-c3ccc(NS(C)(=O)=O)nc3)n2)ccc1N1C[C@@H]2C[C@H]1CN2C` [compound 151, 4-(6-(methylsulfonylamino)pyridin-3-yl)-N-(3-methyl-4-((1S,4S)-5-methyl-2,5-diazabicyclo[2.2.1]heptan-2-yl)phenyl)pyrimidin-2-amine], the GI50 fell in the range of 1000 to 10000 nM. The same measure, in the same setting: for `CN1C[C@@H]2C[C@H]1CN2c1ccc(Nc2nccc(-c3cncc(S(C)(=O)=O)c3)n2)cc1F` [compound 101, 4-(5-(methyl)sulfonylpyridin-3-yl)-N-(3-fluoro-4-((1S,4S)-5-methyl-2,5-diazabicyclo[2.2.1]heptan-2-yl)phenyl)pyrimidin-2-amine] the value was less than 1000 nM; for `CN1CC2(C)CN(c3ccc(Nc4nccc(-c5ccc(Cc6ccccc6)nc5)n4)cc3F)CC(C)(C1)C2` [compound 91, 4-(6-(benzyl)pyridin-3-yl)-N-(3-fluoro-4-(1,5,7-trimethyl-3,7-diazabicyclo[3.3.1]nonan-3-yl)phenyl)pyrimidin-2-amine], less than 1000 nM. As to `Cc1cc(Nc2nccc(-c3csc(N(C)C)n3)n2)ccc1N1C[C@@H]2C[C@H]1CN2C` [compound 175, 4-(2-(dimethylamino)thiazol-4-yl)-N-(3-methyl-4-((1S,4S)-5-methyl-2,5-diazabicyclo[2.2.1]heptan-2-yl)phenyl)pyrimidin-2-amine], the GI50 lay in the range of 1000 to 10000 nM. Consider `Cc1cc(Nc2nccc(-c3cnc4c(c3)CCC(=O)N4)n2)ccc1N1C[C@@H]2C[C@H]1CN2C` [compound 51, 4-(7-oxo-5,6,7,8-tetrahydro-1,8-naphthyridin-3-yl)-N-(3-methyl-4-((1S,4S)-5-methyl-2,5-diazabicyclo[2.2.1]heptan-2-yl)phenyl)pyrimidin-2-amine], for which the GI50 was less than 1000 nM. Regarding `CN1C[C@@H]2C[C@H]1CN2c1ccc(Nc2nccc(-c3ccc(NC(=O)CN4CCOCC4)nc3)n2)cc1` [compound 142, 4-(6-(2-(morpholin-4-yl)acetamido)pyridin-3-yl)-N-(4-((1S,4S)-5-methyl-2,5-diazabicyclo[2.2.1]heptan-2-yl)phenyl)pyrimidin-2-amine], the GI50 is 1000 to 10000 nM.

Take `Cc1cc(-c2ccnc(Nc3ccc(N4C[C@@H]5C[C@H]4CN5C)c(F)c3)n2)cnc1N1CCOCC1` [compound 59, 4-(5-methyl-6-(morpholin-4-yl)pyridin-3-yl)-N-(3-fluoro-4-((1S,4S)-5-methyl-2,5-diazabicyclo[2.2.1]heptan-2-yl)phenyl)pyrimidin-2-amine]: the GI50 was less than 1000 nM. As to `CN1CC2(C)CN(c3ccc(Nc4nccc(-c5cnc6c(c5)OCCN6)n4)cc3F)CC(C)(C1)C2` [compound 89, 4-(3,4-dihydro-2H-pyrido[3,2-b][1,4]oxazin-7-yl)-N-(3-fluoro-4-(1,5,7-trimethyl-3,7-diazabicyclo[3.3.1]nonan-3-yl)phenyl)pyrimidin-2-amine], the GI50 lay in the range of 1000 to 10000 nM. On the same count and under the same terms, for `Cc1cc(Nc2nccc(-c3cnc4c(c3)OCCN4)n2)ccc1N1CC2(C)CN(C)CC(C)(C1)C2` [compound 88, 4-(3,4-dihydro-2H-pyrido[3,2-b][1,4]oxazin-7-yl)-N-(3-methyl-4-(1,5,7-trimethyl-3,7-diazabicyclo[3.3.1]nonan-3-yl)phenyl)pyrimidin-2-amine] the value was less than 1000 nM; for `CN1C[C@@H]2C[C@H]1CN2c1ccc(Nc2nccc(-c3ccc(NS(C)(=O)=O)nc3)n2)cc1F` [compound 153, 4-(6-(methylsulfonylamino)pyridin-3-yl)-N-(3-fluoro-4-((1S,4S)-5-methyl-2,5-diazabicyclo[2.2.1]heptan-2-yl)phenyl)pyrimidin-2-amine], 1000 to 10000 nM. `Cc1cc(Nc2nccc(-c3ccc(N4CCOCC4)nc3)n2)ccc1N1C[C@@H]2C[C@H]1CN2CC1CC1` [compound 37, 4-(6-(morpholin-4-yl)pyridin-3-yl)-N-(3-methyl-4-((1S,4S)-5-(cyclopropyl)methyl-2,5-diazabicyclo[2.2.1]heptan-2-yl)phenyl)pyrimidin-2-amine]: the GI50 is less than 1000 nM.

Take `Cc1cc(Nc2nccc(-c3ccc(-c4nnn[nH]4)nc3)n2)ccc1N1C[C@@H]2C[C@H]1CN2C` [compound 115, 4-(6-(1H-tetrazol-5-yl)pyridin-3-yl)-N-(3-methyl-4((1S,4S)-5-methyl-2,5-diazabicyclo[2.2.1]heptan-2-yl)phenyl)pyrimidin-2-amine]: the GI50 is 10000 to 20000 nM. Take `Cc1cc(Nc2nccc(-c3ccc(NCc4ccccc4)nc3)n2)ccc1N1C[C@@H]2C[C@H]1CN2C` [compound 80, 4-(6-(benzylamino)pyridin-3-yl)-N-(3-methyl-4-((1S,4S)-5-methyl-2,5-diazabicyclo[2.2.1]heptan-2-yl)phenyl)pyrimidin-2-amine]: the GI50 was less than 1000 nM. `CCOC(C)c1ccc(-c2ccnc(Nc3ccc(N4C[C@@H]5C[C@H]4CN5C)c(C)c3)n2)cc1` (stereo partly drawn) [compound 181, 4-(4-(1-ethoxyethyl)phenyl)-N-(3-methyl-4-((1S,4S)-5-methyl-2,5-diazabicyclo[2.2.1]heptan-2-yl)phenyl)pyrimidin-2-amine]: the GI50 was in the range of 1000 to 10000 nM.

The assay is the same for the next values; noted with them: inhibition of JAK2 activity, proliferation of Ba/F3 V617F cells, read-out: IC50 (the source's name).
For `Cc1cc(Nc2nccc(-c3ccc(N)nc3)n2)cnc1N1C[C@@H]2C[C@H]1CN2C` [compound 145, 4-(6-aminopyridin-3-yl)-N-(5-methyl-6-((1S,4S)-5-methyl-2,5-diazabicyclo[2.2.1]heptan-2-yl)pyridin-3-yl)pyrimidin-2-amine], the GI50 is less than 1000 nM.
